# Reference: publication PMC4467461, “Small-molecule activation of SERCA2a SUMOylation for the treatment of heart failure” (Nature Communications, 2015)
# “Also recorded” adds a separate entry of the source.
# Assays:
# [1] = system: HEK-293 cells co-transfected with SERCA2a and SAE1 mutants (Q312A and V315F); assay: N106-induced SERCA2a SUMOylation in HEK-293 cells overexpressing SAE1 mutants; assay type: cell-based
# Method: Supplementary Figure 4. Effects of overexpressing SAE1 mutants on N106-induced SERCA2a SUMOylation. (a) HEK-293 cells were co-transfected with SERCA2a and SAE1 wild type or SAE1 mutants (Q312A and V315F) for 24 hours. And then the transfecting HEK-293 cells were incubated with different concentration of N106 for 24 hours. The level of SERCA2a SUMOylation was determined by immunoprecipitation and following with Western blotting. (b) The levels of SAE1 overexpression were determined by Western blotting with anti- […]
# (1 picture or pasted object on this page, not shown here)
# [2] = system: NCI-60 human tumour cell lines; assay: NCI-60 human tumour cell screen (sulforhodamine B); assay type: cell-based; settings: single dose 10^-5 M, 48 hours, 60 tumor cell panels incl. MDA-MB-231
# Description: One concern about an agent that enhances SUMOylation is off-target effects including tumour growth. Several studies reported direct involvement of SUMO E1 in the setting of cancer. In patients with hepatocellular carcinoma, UBA2 gene expression was higher and directly correlated with lower survival rate[25]. SUMO E1 was also reported to be an important factor for myc-dependent tumour growth in mice and there is a correlation between low SUMO E1 gene expression and longer metastasis-free survival rate of patients with myc-high breast cancers. Thus, we sought to determine whether N106 would have an effect on cancer cell growth. We performed the NCI-60 human tumour cell screen used by the National Cancer Institute’s Developmental Therapeutics Program (http://dtp.cancer.gov/docs/compare/compare.html). The NCI-60 set includes leukemia, lymphomas and carcinomas of ovarian, renal, breast, prostate, colon, lung and central nervous system origin.
# Supplementary Figure 12. NCI 60 cell screening. N106 submitted to the NCI 60 cell screen
# has been tested initially at a single high dose of 10^-5 M in 60 different tumor cell panels. 48 hours
# after compound treatment, cell density and proliferation was determined by sulforhodamine B
# [3] = biological target: T1, Recombinant human SUMO-specific E1 (Homo sapiens, UniProt Q9UBT2); assay: SUMO E1 ATP hydrolysis, fluorogenic pyrophosphate assay; assay type: biochemical; settings: E1 0.05 μM, Ubc9 0.25 μM, SUMO-1 12.5 μM, ATP 1 mM, 30 min at 37 °C; read-out: ATP-dependent activation of SUMO E1, EC50
# T1 construct: purchased R&D Systems
# Method: Figure 3 SUMO-specific activating enzyme, E1, is a direct target of N106. Mechanism of action of N106 on individual steps in the SUMOylation cascade in vitro. (a) Inorganic pyrophosphate resulting from ATP hydrolysis in E1-catalysed SUMO-1 activation in the presence of increasing concentration of N106 compound was assessed by fluorogenic pyrophosphate assay kit. Recombinant human SUMO-specific E1 (0.05 μM), human Ubc9 (0.25 μM), human SUMO-1 (12.5 μM) and ATP (1 mM) were incubated with increasing concentration of N106 for 30 min at 37 °C and quantified using a fluorescence microplate reader. (b) The SAE2-SUMO-1 conjugation was detected followed by western blotting with anti-SAE2 antibodies. […] (e) ATP hydrolytic activity of WT and mutant SUMO E1 are determined. (f) The E1-SUMO-1 conjugation was detected followed by western blot analysis with anti-SAE2 antibody. *The SAE2-SUMO-1 conjugated bands. […]
# Biochemical activity of SUMO-specific E1 enzymes was examined by ATPase assay and in-vitro gel-shifting assays. ATP hydrolysis activity of E1 enzymes was measured by using pyrophosphate assay kit (Abcam Inc.). […] The E1-thioester formation was analysed in reaction mixtures containing 0.05 μM E1, 12.5 μM SUMO-1 and 1 mM ATP with N106 or DMSO. The E1-dependent E2-SUMO-1 thioester formation was assessed using reaction containing 0.05 μM E1, 0.25 μM E2, 12.5 μM SUMO-1 and 1 mM ATP with N106 or DMSO. […]
# T1 sequence (Q9UBE0 whole entry): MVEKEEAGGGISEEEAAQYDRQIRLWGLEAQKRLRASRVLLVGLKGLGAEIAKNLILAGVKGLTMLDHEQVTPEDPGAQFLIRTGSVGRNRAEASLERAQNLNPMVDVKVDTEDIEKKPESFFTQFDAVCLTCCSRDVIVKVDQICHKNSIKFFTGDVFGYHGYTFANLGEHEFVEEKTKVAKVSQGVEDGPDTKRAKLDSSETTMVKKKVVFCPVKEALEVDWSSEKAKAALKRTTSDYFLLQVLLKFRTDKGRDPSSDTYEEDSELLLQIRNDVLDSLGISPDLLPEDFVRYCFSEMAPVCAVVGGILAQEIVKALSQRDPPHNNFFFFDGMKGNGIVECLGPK
# T1 sequence (Q9UBT2 whole entry): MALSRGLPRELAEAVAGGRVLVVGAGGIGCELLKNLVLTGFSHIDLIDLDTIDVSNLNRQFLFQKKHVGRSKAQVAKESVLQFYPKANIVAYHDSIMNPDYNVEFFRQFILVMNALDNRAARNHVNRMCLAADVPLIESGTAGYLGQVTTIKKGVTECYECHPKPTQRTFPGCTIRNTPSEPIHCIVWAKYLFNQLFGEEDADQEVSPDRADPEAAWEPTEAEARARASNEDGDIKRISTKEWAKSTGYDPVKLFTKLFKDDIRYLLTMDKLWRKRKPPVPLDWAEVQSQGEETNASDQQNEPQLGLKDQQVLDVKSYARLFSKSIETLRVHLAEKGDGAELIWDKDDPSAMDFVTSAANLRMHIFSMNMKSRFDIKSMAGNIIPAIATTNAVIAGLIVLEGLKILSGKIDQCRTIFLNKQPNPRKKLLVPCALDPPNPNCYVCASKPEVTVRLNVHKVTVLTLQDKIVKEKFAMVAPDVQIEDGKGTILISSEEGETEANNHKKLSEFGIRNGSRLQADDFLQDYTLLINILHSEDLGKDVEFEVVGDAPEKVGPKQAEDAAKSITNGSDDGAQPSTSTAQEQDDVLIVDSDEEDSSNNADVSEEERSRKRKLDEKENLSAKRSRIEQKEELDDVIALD
smiles,measurement,setting,value
"COc1ccc(-c2nnc(Nc3nc4c(OC)cccc4s3)o2)cc1 [Compound N106, N-(4-methoxybenzo[d]thiazol-2-yl)-5-(4-methoxyphenyl)-1,3,4-oxadiazol-2-amine]",N106-induced increase in SUMOylation of SERCA2a in mutant SAE1-overexpressing cells versus overexpressed WT,[1]; 24 h,weaker
same,Dose-dependent increases in SERCA2a SUMOylation in cells overexpressing mutants,"[1]; different concentration of N106, 24 h",not observed
same,tumour cell growth and proliferation,[2],has not shown any significant oncogenic activity; also recorded: did not induce any tumour cell growth and proliferation
same,EC50,[3],2450 ± 130 nM
